The values below are quoted from earlier work in US20040202732A1, “Composition to promote weight loss” (priority 2003, published 2004).

For data set [1], the system named is prostaglandin E2 production.
The conditions of data set [2]: 4-week treatment.
The conditions of data set [3]: three daily doses for 2 weeks, exercise 90 minutes three times weekly.
The conditions of data set [4]: 12 weeks, 3.4-g and higher CLA groups, sixty overweight or obese subjects.
The conditions of data set [5]: mice fed CLA supplemented diets for 28 days.
The conditions of data set [6]: 12 weeks, fifty-three healthy men and women.
The conditions of data set [7]: caffeine administration alone.

Turning to Conjugated Linoleic Acid [CLA], the “inhibition of prostaglandin E2 production” value in data set [1] is recorded as “can inhibit”. Besides, the reduction from waistlines entry in data set [2] (average) was “an average of one-inch reduction”. Further, the “sagittal abdominal diameter (SAD)” value in [2] (twenty-five men with significant abdominal fat) is on record as “significant reduction”. In addition, the body weight loss result in [3] is “no effects”. The body fat entry in data set [3] (versus placebo) was “significantly reduced”. For the same molecule, the “body fat mass (BFM)” value in data set [4] is “significant reduction”. In the data set with IL-1, the “inhibition of IL-1” value was “can inhibit”. Further, in data set [5], the body mass result is on record as “maintained body mass”, the “increase of body protein” value is “up to 13%” and the “reduction of body fat” value is on record as “up to 60%”. Moreover, in [6], the “decrease of proportion of body fat” value is reported as 3.8%.

Turning to `Cn1c(=O)c2c(ncn2C)n(C)c1=O` [caffeine], the “increased resting energy expenditure and fat oxidation” value in data set [7] is recorded as “did not occur”.

For `O=C(O[C@@H]1Cc2c(O)cc(O)cc2O[C@@H]1c1cc(O)c(O)c(O)c1)c1cc(O)c(O)c(O)c1` [EGCG, epigallocatechin galate], the “inhibition of prostaglandin E2 production” value in [1] is listed as “can inhibit”. Moreover, the “inhibition of TNF-alpha” value in the data set with TNF-alpha is recorded as “can inhibit”.
